Columns and labels:
Assay in all cases: relative viability (nuclei count vs DMSO), 5 days (fraction); higher = more cells survive
[1] = compound: CCc1cnn2c(NCc3ccc[n+]([O-])c3)cc(N3CCCC[C@H]3CCO)nc12 [Dinaciclib]
How it was run: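 On vehicle-anchored 1536-well plates, lung cancer cell lines held overnight at 37 °C were pinned with five library-drug doses (not always all listed) spaced by √10. With no medium change over 5 days, they were then fixed, permeabilised and Hoechst-stained in one step and imaged at 4×. MetaXpress counted nuclei, and viability is the median across plates of treated-well over vehicle-well nuclei. Acceptance needed control CV below 25% and at least one doubling.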

[2] = compound: CCc1cnn2c(NCc3ccc[n+]([O-])c3)cc(N3CCCC[C@H]3CCO)nc12 [Dinaciclib] + CCNC(=O)c1noc(-c2cc(C(C)C)c(O)cc2O)c1-c1ccc(CN2CCOCC2)cc1 [Luminespib] (partner 0.01 µM)
How it was run: (§1)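 Lung cancer cell lines were seeded in 1536-well plates and dosed by pin tool the next day, with either a single drug or a fixed anchor-drug dose combined with five library-drug doses (not always all listed) spaced in √10 steps. Five days later, one step fixed the cells and stained their nuclei (final 0.05% Triton X-100, 1% formaldehyde, 1 ug/ml Hoechst), and nuclei were counted on 4× images. Relative viability is the nuclei count in treated wells divided by the count in vehicle wells, and each value is the median of duplicate plates.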

[3] = compound: CCc1cnn2c(NCc3ccc[n+]([O-])c3)cc(N3CCCC[C@H]3CCO)nc12 [Dinaciclib] + COc1cc2c(Oc3ccc(NC(=O)C4(C(=O)Nc5ccc(F)cc5)CC4)cc3F)ccnc2cc1OCCCN1CCOCC1 [Foretinib] (partner 0.25 µM)
How it was run: as §1

[4] = compound: CCc1cnn2c(NCc3ccc[n+]([O-])c3)cc(N3CCCC[C@H]3CCO)nc12 [Dinaciclib] + COc1cccc2cc(-c3nc([C@H]4CC[C@H](C(=O)O)CC4)n4ncnc(N)c34)[nH]c12 [OSI-027] (partner 0.5 µM)
How it was run: as §1

[5] = compound: CCc1cnn2c(NCc3ccc[n+]([O-])c3)cc(N3CCCC[C@H]3CCO)nc12 [Dinaciclib] + Cc1cc(Nc2cc(N3CCN(C)CC3)nc(Sc3ccc(NC(=O)C4CC4)cc3)n2)n[nH]1 [Tozasertib] (partner 0.1 µM)
How it was run: as §1

[6] = compound: CCc1cnn2c(NCc3ccc[n+]([O-])c3)cc(N3CCCC[C@H]3CCO)nc12 [Dinaciclib] + Cc1nc(Nc2ncc(C(=O)Nc3c(C)cccc3Cl)s2)cc(N2CCN(CCO)CC2)n1 [Dasatinib] (partner 0.075 µM)
How it was run: as §1

[7] = compound: CCc1cnn2c(NCc3ccc[n+]([O-])c3)cc(N3CCCC[C@H]3CCO)nc12 [Dinaciclib] + N=C(N)NC(=N)NCCc1ccccc1 [Phenformin] (partner 250 µM)
How it was run: as §1

[8] = compound: CCc1cnn2c(NCc3ccc[n+]([O-])c3)cc(N3CCCC[C@H]3CCO)nc12 [Dinaciclib] + CC(=O)Nc1cccc(-n2c(=O)n(C3CC3)c(=O)c3c(Nc4ccc(I)cc4F)n(C)c(=O)c(C)c32)c1 [Trametinib] (partner 0.02 µM)
How it was run: as §1

[9] = compound: CCc1cnn2c(NCc3ccc[n+]([O-])c3)cc(N3CCCC[C@H]3CCO)nc12 [Dinaciclib] + CC(=O)c1c(C)c2cnc(Nc3ccc(N4CCNCC4)cn3)nc2n(C2CCCC2)c1=O [Palbociclib] (partner 0.5 µM)
How it was run: as §1

[10] = compound: CCc1cnn2c(NCc3ccc[n+]([O-])c3)cc(N3CCCC[C@H]3CCO)nc12 [Dinaciclib] + NC(=O)Nc1cc(-c2cccc(F)c2)sc1C(=O)N[C@H]1CCCNC1 [AZD7762] (partner 0.2 µM)
How it was run: as §1

[11] = compound: CCc1cnn2c(NCc3ccc[n+]([O-])c3)cc(N3CCCC[C@H]3CCO)nc12 [Dinaciclib] + Nc1nc2[nH]cc(CCc3ccc(C(=O)N[C@@H](CCC(=O)O)C(=O)O)cc3)c2c(=O)[nH]1 [Pemetrexed] (partner 0.2 µM)
How it was run: as §1

[12] = compound: CCc1cnn2c(NCc3ccc[n+]([O-])c3)cc(N3CCCC[C@H]3CCO)nc12 [Dinaciclib] + Nc1ncn([C@H]2C[C@H](O)[C@@H](CO)O2)c(=O)n1 [Decitabine] (partner 2 µM)
How it was run: as §1

[13] = compound: CCc1cnn2c(NCc3ccc[n+]([O-])c3)cc(N3CCCC[C@H]3CCO)nc12 [Dinaciclib] + O=C(CCCCCCC(=O)Nc1ccccc1)NO [Vorinostat] (partner 1 µM)
How it was run: as §1

[14] = compound: CCc1cnn2c(NCc3ccc[n+]([O-])c3)cc(N3CCCC[C@H]3CCO)nc12 [Dinaciclib] + O=C(c1cc(Cc2n[nH]c(=O)c3ccccc23)ccc1F)N1CCN(C(=O)C2CC2)CC1 [Olaparib] (partner 8 µM)
How it was run: as §1

NCI-H1623
relative viability ([1]; 0.009487 µM): 1.02 | relative viability ([1]; 0.03 µM): 0.332 | relative viability ([1]; 0.09487 µM): 0.26 | relative viability ([1]; 0.3 µM): 0.196 | relative viability ([2]; first compound 0.009487 µM): 0.428 | relative viability ([2]; first compound 0.03 µM): 0.262 | relative viability ([2]; first compound 0.09487 µM): 0.132 | relative viability ([2]; first compound 0.3 µM): 0.144 | relative viability ([3]; first compound 0.009487 µM): 0.831 | relative viability ([3]; first compound 0.03 µM): 0.273 | relative viability ([3]; first compound 0.09487 µM): 0.235 | relative viability ([3]; first compound 0.3 µM): 0.234 | relative viability ([4]; first compound 0.009487 µM): 0.397 | relative viability ([4]; first compound 0.03 µM): 0.236 | relative viability ([4]; first compound 0.09487 µM): 0.231 | relative viability ([4]; first compound 0.3 µM): 0.2 | relative viability ([5]; first compound 0.009487 µM): 0.437 | relative viability ([5]; first compound 0.03 µM): 0.249 | relative viability ([5]; first compound 0.09487 µM): 0.207 | relative viability ([5]; first compound 0.3 µM): 0.193 | relative viability ([6]; first compound 0.009487 µM): 0.518 | relative viability ([6]; first compound 0.03 µM): 0.36 | relative viability ([6]; first compound 0.09487 µM): 0.207 | relative viability ([6]; first compound 0.3 µM): 0.231 | relative viability ([7]; first compound 0.009487 µM): 0.609 | relative viability ([7]; first compound 0.03 µM): 0.259 | relative viability ([7]; first compound 0.09487 µM): 0.213 | relative viability ([7]; first compound 0.3 µM): 0.225

NCI-H1648
relative viability ([1]; 0.009487 µM): 0.788 | relative viability ([1]; 0.03 µM): 0.301 | relative viability ([1]; 0.09487 µM): 0.247 | relative viability ([1]; 0.3 µM): 0.29 | relative viability ([8]; first compound 0.009487 µM): 0.49 | relative viability ([8]; first compound 0.03 µM): 0.346 | relative viability ([8]; first compound 0.09487 µM): 0.241 | relative viability ([8]; first compound 0.3 µM): 0.264 | relative viability ([9]; first compound 0.009487 µM): 0.227 | relative viability ([9]; first compound 0.03 µM): 0.223 | relative viability ([9]; first compound 0.09487 µM): 0.265 | relative viability ([9]; first compound 0.3 µM): 0.224 | relative viability ([4]; first compound 0.009487 µM): 0.263 | relative viability ([4]; first compound 0.03 µM): 0.259 | relative viability ([4]; first compound 0.09487 µM): 0.265 | relative viability ([4]; first compound 0.3 µM): 0.212 | relative viability ([5]; first compound 0.009487 µM): 0.503 | relative viability ([5]; first compound 0.03 µM): 0.274 | relative viability ([5]; first compound 0.09487 µM): 0.166 | relative viability ([5]; first compound 0.3 µM): 0.207 | relative viability ([10]; first compound 0.009487 µM): 0.85 | relative viability ([10]; first compound 0.03 µM): 0.577 | relative viability ([10]; first compound 0.09487 µM): 0.266 | relative viability ([10]; first compound 0.3 µM): 0.24 | relative viability ([11]; first compound 0.009487 µM): 0.644 | relative viability ([11]; first compound 0.03 µM): 0.677 | relative viability ([11]; first compound 0.09487 µM): 0.25 | relative viability ([11]; first compound 0.3 µM): 0.199 | relative viability ([12]; first compound 0.009487 µM): 0.468 | relative viability ([12]; first compound 0.03 µM): 0.218 | relative viability ([12]; first compound 0.09487 µM): 0.231 | relative viability ([12]; first compound 0.3 µM): 0.217 | relative viability ([13]; first compound 0.009487 µM): 0.275 | relative viability ([13]; first compound 0.03 µM): 0.434 | relative viability ([13]; first compound 0.09487 µM): 0.294 | relative viability ([13]; first compound 0.3 µM): 0.262 | relative viability ([14]; first compound 0.009487 µM): 0.521 | relative viability ([14]; first compound 0.03 µM): 0.387 | relative viability ([14]; first compound 0.09487 µM): 0.234 | relative viability ([14]; first compound 0.3 µM): 0.219

Reference: the supplement of paper PMC10307832
